Test results: patent publication US20060069045A1, “Methods for treating familial dysautonomia” (priority 2004, published 2006)

Tests used:
Assay type in all cases: cell-based, human
IKAP transcript [1] = experiment: real-time RT-PCR analysis of IKAP RNA levels (exon 20-containing, exon 20-lacking) in treated cells; conditions: for level of the wild-type of IKAP transcript: GM04663 cells, 24 h, each agent by itself (5 ug/ml EGCG; 6.25 ug/ml δ-tocotrienol)
Procedure: (§1) In order to identify agents that could modulate the level of the wild type IKAP transcript produced in FD-derived cells, either by increasing transcription or modulating splicing, FD-derived fibroblast cells (GM04663) were treated with EGCG. RNA was isolated from GM04663 cells treated for 24 h with varying concentrations of EGCG was subjected to real-time RT-PCR analysis using a pair of primers that recognize both of the hnRNP A2/B1 transcripts. More specifically, FD-derived fibroblast cells, seeded in 96-well plates were treated in triplicate for approximately 24 h unless noted otherwise. After treatment, the cells were washed once with PBS and then lysed in 50 μl Cell-to-cDNA lysis buffer (Ambion) at 75° C. for 12 min. After one freeze-thaw cycle, 4 μl of lysate was used in 20 μl RT-PCR. The Quantitect SYBR Green RT-PCR Kit (Qiagen) was used for real-time RT-PR analysis of the relative quantities of the exon 20-containing transcript (wild-type), the exon 20-lacking transcript (mutant), and exon 34-35 containing transcript that is unaffected by the FD-causing mutation (total), as well as the hnRNP A2/B1 and hnRNP A1 transcripts.
The primers used for these analyses were as follows: for the exon 20-containing transcript, 5′-AGTTGTTCATCATCGAGC-3′ (SEQ ID NO: 3) and 5′-[…]-3′ (SEQ ID NO: 4); for exon 20-lacking transcript, 5′-[…]-3′ (SEQ ID NO: 5) and 5′-[…]-3′ (SEQ ID NO: 6); for exon […] containing transcript, 5′-GAGATCATCCAAGAATCGC-3′ (SEQ ID NO: 7) and 5′-GGTAGCTGAATTCTGCTG-3′ (SEQ ID NO: 8); for hnRNP A2/B1 transcript, 5′-GAGTTGTTTCTCGAGCAG-3′ (SEQ ID NO: 9) and 5′-TGATCTTTTGCTTGCAGG-3′ (SEQ ID NO: 10); and for hnRNP A1 transcript, 5′-[…]-3′ (SEQ ID NO: 11) and 5′-[…]-3′ (SEQ ID NO: 12). Primers were used at a concentration of 0.5 μM. An ABI PRISM 7000 Sequence Detection System (Applied Biosystems), programmed as follows, was used to perform the real-time RT-PCR and analysis: 50° C.×30 min and 95° C.×15 min for one cycle, followed by 40 cycles of 94° C.×15 s, 57-60° C.×30 s, and 72° C.×30 s. To present relative amounts of PCR product obtained, results are expressed as changes in the threshold cycle (ΔCT) compared to untreated cells. The threshold cycle refers to the PCR cycle at which the fluorescence of the PCR is increased to a calculated level above background. A change of 1.0 in CT, assuming 100% PCR efficiency, would reflect a twofold change in the starting amount of the RNA template that was amplified.
To control for the amount of RNA present in the samples, RT-PCR amplification of ribosomal 18S RNA was performed on all cell lysates. […] For this analysis, TaqMan Ribosomal RNA Control Reagents were used with the TaqMan EZ RT-PCR Kit (Applied Biosystems) as per the manufacturer's protocol.
(§2) To determine the effect of EGCG on the cellular level of the exon 20-containing (wild type) IKAP mRNA, FD-derived and normal fibroblasts were treated with 50 μg/ml EGCG for varying lengths of time. The levels of hnRNP A2/B1, hnRNP A1, IKAP exon 20-containing (wild type), IKAP exon 20-lacking (mutant), and IKAP exon 34-35-containing (total) transcripts were determined (FIG. 3).

hnRNP A2/B1 transcript = experiment: real-time RT-PCR analysis of hnRNP A2/B1 transcripts in EGCG-treated cells
From the text: (§3) The GM00850 and GM04663 cell lines, homozygous for the IVS20^+6T→C FD-causing mutation, and the GM02912 cell line, derived from an unaffected individual, were obtained from the NIGMS Human Genetic Mutant Cell Repository. LA1-55n cells were provided by Dr. Robert A. Ross. EGCG and δ-tocotrienol were purchased from Calbiochem. A monoclonal antibody generated against a peptide encoded by exons 23-28 of IKBKAP was purchased from BD Biosciences. The 4B10 and DP3B3 monoclonal antibodies, which recognize hnRNP A1 and hnRNP A2/B1, respectively, were provided by Dr. Gideon Dreyfuss.
as §1, with “transcripts. […]” for “transcripts. More specifically, FD-derived fibroblast cells, seeded in 96-well plates were treated in triplicate for approximately 24 h unless noted otherwise. After treatment, the cells were washed once with PBS and then lysed in 50 μl Cell-to-cDNA lysis buffer (Ambion) at 75° C. for 12 min. After one freeze-thaw cycle, 4 μl of lysate was used in 20 μl RT-PCR.”, “transcripts. […]” for “transcripts.”

hnRNP A1 transcript = experiment: real-time RT-PCR analysis of hnRNP A1 transcript in EGCG-treated cells; conditions: FD-derived and normal fibroblasts, 50 μg/ml EGCG, varying lengths of time
Procedure: as §1, with “noted otherwise. […] The Quantitect” for “noted otherwise. After treatment, the cells were washed once with PBS and then lysed in 50 μl Cell-to-cDNA lysis buffer (Ambion) at 75° C. for 12 min. After one freeze-thaw cycle, 4 μl of lysate was used in 20 μl RT-PCR. The Quantitect”, “A1 transcripts. […]” for “A1 transcripts.”
as §2

IKAP transcript [2] = experiment: RT-PCR with primers in exons 19 and 23, agarose gel, of wild-type and mutant IKAP transcripts; conditions: 24 h, 50 μg/ml EGCG
Procedure: The effect of EGCG treatment was further monitored by RT-PCR analysis using primers located in exons 19 and 23 capable of amplifying both the normal and mutant forms of the IKAP transcript. 4 μl of cell lysates produced as described above was used in 20 μl RT-PCR using the One Step RT-PCR Kit (Qiagen) with the following primers which recognize sequences in exons 19 and 23 of IKBKAP: 5′-GCAGCAATCATGTGTCCCA-3′ (SEQ ID NO: 1) and 5′-TAGCATCGCAGACAAGGTC-3′ (SEQ ID NO: 2). The RT-PCR was carried out as follows: one cycle of 50° C.×30 min and 95° C.×15 min, followed by 41 cycles of 94° C.×20 s, 60° C.×30 s and 72° C.×15 s, and then a final extension of 72° C.×2 min. PCR products were analyzed on a 2% agarose gel.

hnRNP A2/B1 = experiment: Western blot analysis of hnRNP A2/B1 in EGCG-treated cells; conditions: GM00850 and GM04663 cells, 24 h, 50 μg/ml EGCG
From the text: as §3
(§4) GM00850 and GM04663 cells treated for 24 h with 50 μg/ml of EGCG were washed twice with PBS and lysed in 0.5 M Tris-HCl, pH 6.8, containing 1.4% SDS. Western blot analysis was performed essentially as described by Rubin et al. (Proc. Natl. Acad. Sci. USA 82: 6637-41 (1985)). Equal amounts of protein fractionated on a 7% NuPAGE Tris-Acetate Gel (Invitrogen) were blotted onto nitrocellulose (Bio-Rad) and probed overnight with a monoclonal antibody (BD Biosciences) to IKAP that is directed against the carboxyl end (exons 23-28) of IKAP and therefore recognizes the full-length protein. The blot was then washed and probed with a goat anti-mouse antibody conjugated to alkaline phosphatase (Promega), followed by detection with Western Blue Substrate solution (Promega). […]

hnRNP A1 = experiment: Western blot analysis of hnRNP A1 in EGCG-treated cells; conditions: GM00850 and GM04663 cells, 24 h, 50 μg/ml EGCG
From the text: as §3, §4

IKAP = experiment: Western blot analysis of full-length IKAP in treated FD-derived cells; conditions: FD-derived GM00850 and GM04663 fibroblasts, 24 h, 50 μg/ml EGCG
From the text: as §3, §4

Row | SMILES | level of the wild-type of IKAP transcript (IKAP transcript [1]) | level of the hnRNP A2/B1 transcript (hnRNP A2/B1 transcript; FD-derived GM04663 cells, 24 h, varying concentrations of EGCG) | level of the hnRNP A2/B1 transcript (hnRNP A2/B1 transcript; FD-derived and normal fibroblasts, 50 μg/ml EGCG, varying lengths of time) | level of the hnRNP A1 transcript (hnRNP A1 transcript) | level of the exon 20-lacking transcript (IKAP transcript [1]; 50 μg/ml EGCG, varying lengths of time) | exon 20-containing IKAP transcript (IKAP transcript [1]; FD-derived cells, 50 μg/ml EGCG, varying lengths of time) | exon 20-containing IKAP transcript (IKAP transcript [1]; normal cells (GM02912), 50 μg/ml EGCG, varying lengths of time) | exon 20-containing transcript (RT-PCR, exons 19-23, gel) (IKAP transcript [2]; FD-derived cells) | exon 20-containing transcript (RT-PCR, exons 19-23, gel) (IKAP transcript [2]; normal cells) | level of hnRNP A2/B1 (Western blot) (hnRNP A2/B1) | hnRNP A1 levels (Western blot) (hnRNP A1) | amount of IKAP (full-length protein, Western blot) (IKAP)
1 | CC(C)=CCC/C(C)=C/CC/C(C)=C/CC[C@]1(C)CCc2cc(O)cc(C)c2O1 [8-tocotrienol, δ-tocotrienol, reference compound] | did not result in a significant elevation |  |  |  |  |  |  |  |  |  |  | 
2 | O=C(O[C@@H]1Cc2c(O)cc(O)cc2O[C@@H]1c1cc(O)c(O)c(O)c1)c1cc(O)c(O)c(O)c1 [EGCG, epigallocatechin gallate] | did not result in a significant elevation | clear concentration-dependent decrease | time-dependent reduction | no effect | not affected | elevated | failed to exhibit an increase | clear enhanced presence | no effect | suppress the level | unaffected | clear increase
